Measurements as given in patent US20260295038A1, “GLYCOLIPID DERIVATIVE AS MINCLE LIGAND” (priority 2023, published 2026).

Target: T1, bovine Mincle (Bos taurus, UniProt E1BHM0)
T1 construct: mouse T-cell hybridoma with FcRgamma), plate assay
T1 sequence (E1BHM0 1-211): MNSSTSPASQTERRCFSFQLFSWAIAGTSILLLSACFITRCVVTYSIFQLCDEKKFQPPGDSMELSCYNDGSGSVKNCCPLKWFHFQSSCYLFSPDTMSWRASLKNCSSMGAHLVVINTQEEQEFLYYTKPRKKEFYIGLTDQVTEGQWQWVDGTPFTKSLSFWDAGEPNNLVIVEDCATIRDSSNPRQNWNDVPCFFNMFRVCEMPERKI
Experiment: Mincle ligand activity, NFAT-GFP reporter cells expressing bovine Mincle (Experimental Example 1)
Assay type: cell-based
Conditions: 0.03 to 3 nmol, FIG. 1 right
Procedure: Similarly, using NFAT-GFP reporter cells expressing bovine Mincle, prepared according to the method described in a literature (Yamasaki, S. et al, Nat Immunol 9, 1179-88(2008)), the ligand activity of HD-276 was evaluated on a 96-well plate. The doses of the test compounds (horizontal axis) were 0.03 to 3 (nmol) from the left to right.

- Mincle ligand activity: confirmed to have Mincle ligand activity
Compound: CCCCCCc1ccc(O[C@@H]2OC(C)[C@H](O)[C@H](OC)C2O[C@@H]2OC(C)[C@H](O[C@@H]3OC(COC)[C@@H](O)C(O)[C@@H]3O)[C@H](OC)C2OC)cc1 (stereo in doubt) [HD-276]
